Results reported in patent US11161850B2, “Fused pyrazine derivatives as A2A / A2B inhibitors” (Incyte Corporation, priority 2018, dated 2021).
pEC50, pKi: −log10 of the molar value. Where two headings read alike, the source gives them in different places.

Assays:
Adenosine A2A = Adenosine A2A (Homo sapiens (Human), UniProt P29274); experiment: A2A Tag-Lite HTRF assay; format: binding
Source text: Example C. A2A Tag-Lite® HTRF Assay

[1] = molecular target: human adenosine A2B receptor (Homo sapiens (Human), UniProt P29275); experiment: Adenosine A2B Receptor Cyclic AMP GS Assay; format: cell-based; details: HEK-293 cells expressing human A2B, agonist NECA 12 nM; for pEC50: read-out: A2B_cAMP_EC50; for EC50: A2B_cAMP_EC50 (nM)
human adenosine A2B receptor, sequence (P29275 whole entry): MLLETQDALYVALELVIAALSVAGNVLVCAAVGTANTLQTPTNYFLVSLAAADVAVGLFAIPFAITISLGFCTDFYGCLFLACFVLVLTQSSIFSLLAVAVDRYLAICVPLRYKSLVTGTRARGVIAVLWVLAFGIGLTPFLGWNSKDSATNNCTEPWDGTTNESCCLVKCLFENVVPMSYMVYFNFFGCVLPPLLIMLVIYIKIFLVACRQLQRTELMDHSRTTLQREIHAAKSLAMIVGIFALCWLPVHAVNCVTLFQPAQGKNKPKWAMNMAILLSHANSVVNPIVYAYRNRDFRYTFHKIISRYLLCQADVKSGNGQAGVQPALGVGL
Method in brief: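 Stably transfected HEK-293 cells were preincubated with compound for 30 min at room temperature, then stimulated with 12 nM NECA for 60 min. cAMP accumulation was read by FRET (665/620 ratio), and EC50 was fitted from percent of control versus log compound concentration.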

[2] = read-out: A2A_Ki, Tag-Lite Adenosine A2A labeled cells, fluorescent ligand 12.5 nM
[3] = Tag-Lite Adenosine A2A labeled cells, fluorescent ligand 12.5 nM, read-out: A2A_Ki

Adenosine A2A, sequence (P29274 whole entry): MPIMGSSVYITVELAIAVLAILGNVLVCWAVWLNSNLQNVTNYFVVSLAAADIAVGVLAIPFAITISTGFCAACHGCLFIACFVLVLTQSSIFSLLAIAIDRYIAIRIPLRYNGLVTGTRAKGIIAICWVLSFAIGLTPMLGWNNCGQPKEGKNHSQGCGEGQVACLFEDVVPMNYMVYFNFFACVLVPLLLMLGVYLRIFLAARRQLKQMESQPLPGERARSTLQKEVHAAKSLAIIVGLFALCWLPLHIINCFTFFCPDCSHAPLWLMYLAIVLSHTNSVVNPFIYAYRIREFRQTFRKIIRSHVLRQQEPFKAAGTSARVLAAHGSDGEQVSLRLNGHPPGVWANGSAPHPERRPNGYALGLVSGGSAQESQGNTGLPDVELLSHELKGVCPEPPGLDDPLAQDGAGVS

N#Cc1cccc(-c2nc(N)c3nc(C(O)c4c(F)cccc4F)nn3c2-c2ccncn2)c1 (single isomer, unassigned) [Example 50, 3-(8-Amino-2-((2,6-difluorophenyl)(hydroxy)methyl)-5-(pyrimidin-4-yl)-[1,2,4]triazolo[1,5-a]pyrazin-6-yl)benzonitrile]
pKi (Adenosine A2A; [2]): > 8.00 | pEC50 [1]: > 8.00

N#Cc1cccc(-c2nc(N)c3nc(Cc4c(F)cccc4CN4CCN5C(=O)CCC5C4)nn3c2-c2ccncn2)c1 (stereo not shown) [Example 67, 3-(8-amino-2-(2-fluoro-6-((6-oxohexahydropyrrolo[1,2-a]pyrazin-2(1H)-yl)methyl)benzyl)-5-(pyrimidin-4-yl)-[1,2,4]triazolo[1,5-a]pyrazin-6-yl)benzonitrile]
pKi (Adenosine A2A; [3]): > 8.00 | EC50 [1]: < 10 nM

N#Cc1cccc(-c2nc(N)c3nc(C(O)c4cccc(F)c4F)nn3c2-c2ccncn2)c1 (single isomer, unassigned) [Example 53, 3-(8-Amino-2-((2,3-difluorophenyl)(hydroxy)methyl)-5-(pyrimidin-4-yl)-[1,2,4]triazolo[1,5-a]pyrazin-6-yl)benzonitrile]
pKi (Adenosine A2A): > 8.00 | EC50 [1]: < 10 nM

N#Cc1cccc(-c2nc(N)c3nc(C(O)c4cc(F)ccc4F)nn3c2-c2ccncn2)c1 (single isomer, unassigned) [Example 51, 3-(8-Amino-2-((2,5-difluorophenyl)(hydroxy)methyl)-5-(pyrimidin-4-yl)-[1,2,4]triazolo[1,5-a]pyrazin-6-yl)benzonitrile]
pKi (Adenosine A2A): > 8.00 | EC50 [1]: < 10 nM

N#Cc1cccc(-c2nc(N)c3nc(Oc4ccccc4F)nn3c2-c2ccncn2)c1 [Example 39, 3-(8-Amino-2-(2-fluorophenoxy)-5-(pyrimidin-4-yl)-[1,2,4]triazolo[1,5-a]pyrazin-6-yl)benzonitrile]
pKi (Adenosine A2A; [3]): > 8.00 | EC50 [1]: < 10 nM

N#Cc1cccc(-c2nc(N)c3nc(Cn4ccc5cccnc54)nn3c2-c2ccncn2)c1 [Example 32, 3-(2-((1H-Pyrrolo[2,3-b]pyridin-1-yl)methyl)-8-amino-5-(pyrimidin-4-yl)-[1,2,4]triazolo[1,5-a]pyrazin-6-yl)benzonitrile]
pKi (Adenosine A2A; [3]): > 8.00 | EC50 [1]: < 10 nM

Cc1n[nH]cc1-c1c(-c2cccc(C#N)c2)nc(N)c2nc(C(O)c3c(F)cccc3F)nn12 (single isomer, unassigned) [Example 102, 3-(8-amino-2-((2,6-difluorophenyl)(hydroxy)methyl)-5-(3-methyl-1H-pyrazol-4-yl)-[1,2,4]triazolo[1,5-a]pyrazin-6-yl)benzonitrile]
pKi (Adenosine A2A): > 8.00 | EC50 [1]: < 10 nM

N#Cc1cccc(-c2nc(N)c3nc(S(=O)(=O)c4ccccc4)nn3c2-c2ccncn2)c1 [Example 60, 3-(8-Amino-2-(phenylsulfonyl)-5-(pyrimidin-4-yl)-[1,2,4]triazolo[1,5-a]pyrazin-6-yl)benzonitrile]
pKi (Adenosine A2A; [3]): > 8.00 | EC50 [1]: 10 to 100 nM

CCn1nccc1-c1c(-c2cccc(C#N)c2)nc(N)c2nc(C(O)c3c(F)cccc3F)nn12 (single isomer, unassigned) [Example 92, 3-(8-amino-2-((2,6-difluorophenyl)(hydroxy)methyl)-5-(1-ethyl-1H-pyrazol-5-yl)-[1,2,4]triazolo[1,5-a]pyrazin-6-yl)benzonitrile]
pKi (Adenosine A2A): > 8.00 | EC50 [1]: < 10 nM

Cc1ncoc1-c1c(-c2cccc(C#N)c2)nc(N)c2nc(C(=O)N3CCC3)nn12 [Example 61, 3-(8-Amino-2-(azetidine-1-carbonyl)-5-(4-methyloxazol-5-yl)-[1,2,4]triazolo[1,5-a]pyrazin-6-yl)benzonitrile]
pKi (Adenosine A2A; [3]): > 8.00 | EC50 [1]: < 10 nM

N#Cc1cccc(-c2nc(N)c3cc(C(O)c4ccccc4F)nn3c2Br)c1 (stereo not shown) [Example 22, 3-(4-Amino-7-bromo-2-((2-fluorophenyl)(hydroxy)methyl)pyrazolo[1,5-a]pyrazin-6-yl)benzonitrile]
pKi (Adenosine A2A; [3]): > 8.00 | EC50 [1]: 100 to 1000 nM

Cn1cc(-c2c(-c3cccc(C#N)c3F)nc(N)c3nc(Cc4ccccn4)nn23)ccc1=O [Example 89, 3-(8-amino-5-(1-methyl-6-oxo-1,6-dihydropyridin-3-yl)-2-(pyridin-2-ylmethyl)-[1,2,4]triazolo[1,5-a]pyrazin-6-yl)-2-fluorobenzonitrile]
pKi (Adenosine A2A; [3]): > 8.00 | EC50 [1]: 10 to 100 nM

N#Cc1cccc(-c2nc(N)c3nc(Cc4c(F)cccc4CNCC(N)=O)nn3c2-c2ccncn2)c1 [Example 69, 2-((2-((8-amino-6-(3-cyanophenyl)-5-(pyrimidin-4-yl)-[1,2,4]triazolo[1,5-a]pyrazin-2-yl)methyl)-3-fluorobenzyl)amino)acetamide]
pKi (Adenosine A2A; [3]): > 8.00 | EC50 [1]: < 10 nM

COc1cccc(Cc2nc3c(N)nc(-c4cccc(C#N)c4)c(-c4ccc(=O)n(C)n4)n3n2)n1 [Example 128, 3-(8-amino-2-((6-methoxypyridin-2-yl)methyl)-5-(1-methyl-6-oxo-1,6-dihydropyridazin-3-yl)-[1,2,4]triazolo[1,5-a]pyrazin-6-yl)benzonitrile]
pKi (Adenosine A2A; [3]): > 8.00 | EC50 [1]: 10 to 100 nM

Cc1cnccc1-c1c(-c2cccc(C#N)c2)nc(N)c2nc(C(O)c3c(F)cccc3F)nn12 (single isomer, unassigned) [Example 109, 3-(8-amino-2-((2,6-difluorophenyl)(hydroxy)methyl)-5-(3-methylpyridin-4-yl)-[1,2,4]triazolo[1,5-a]pyrazin-6-yl)benzonitrile]
pKi (Adenosine A2A; [2]): > 8.00 | pEC50 [1]: > 8.00

CNC(c1nc2c(N)nc(-c3cccc(C#N)c3)c(-c3ocnc3C)n2n1)c1c(F)cccc1F (stereo not shown) [Example 78, 3-(8-amino-2-((2,6-difluorophenyl)(methylamino)methyl)-5-(4-methyloxazol-5-yl)-[1,2,4]triazolo[1,5-a]pyrazin-6-yl)benzonitrile]
pKi (Adenosine A2A; [3]): > 8.00 | EC50 [1]: < 10 nM

CN1CCC2(CN(Cc3cccc(F)c3Cc3nc4c(N)nc(-c5cccc(C#N)c5F)cn4n3)C2)C1=O [Example 85, 3-(8-amino-2-(2-fluoro-6-((6-methyl-5-oxo-2,6-diazaspiro[3.4]octan-2-yl)methyl)benzyl)-[1,2,4]triazolo[1,5-a]pyrazin-6-yl)-2-fluorobenzonitrile]
pKi (Adenosine A2A; [3]): > 8.00 | EC50 [1]: 10 to 100 nM

N#Cc1cccc(-c2nc(N)c3nc(C(O)c4c(F)cccc4F)nn3c2-c2ccncn2)c1 (single isomer, unassigned) [Example 49, 3-(8-Amino-2-((2,6-difluorophenyl)(hydroxy)methyl)-5-(pyrimidin-4-yl)-[1,2,4]triazolo[1,5-a]pyrazin-6-yl)benzonitrile]
pKi (Adenosine A2A): > 8.00 | EC50 [1]: < 10 nM

N#Cc1cccc(-c2nc(N)c3nc(C(O)c4cccc(F)c4F)nn3c2-c2ccncn2)c1 (single isomer, unassigned) [Example 54, 3-(8-Amino-2-((2,3-difluorophenyl)(hydroxy)methyl)-5-(pyrimidin-4-yl)-[1,2,4]triazolo[1,5-a]pyrazin-6-yl)benzonitrile]
pKi (Adenosine A2A; [2]): > 8.00 | pEC50 [1]: > 8.00

Cc1cnccc1-c1c(-c2cccc(C#N)c2)nc(N)c2nc(Cc3ccccn3)nn12 [Example 44, 3-(8-Amino-5-(3-methylpyridin-4-yl)-2-(pyridin-2-ylmethyl)-[1,2,4]triazolo[1,5-a]pyrazin-6-yl)benzonitrile]
pKi (Adenosine A2A; [3]): > 8.00 | EC50 [1]: < 10 nM
